Some test systems named below: MDA-MB-435; HOP-62 NSCLC; HCT-116 colon; HS 578T breast; U251 CNS; HOP-92 NSCLC; NCI-H226 lung; SF-539 CNS; SF-295 CNS; SW-620 colon.
Assay in all cases: growth of human tumour cells (NCI), 48 h

This is an account of results in PubChem BioAssay (NCI).

Several values for one entry are separate records, joined by “and”; a condition that tells them apart may be missing. Equal values may be shown once.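 Five compound concentrations were applied to cells in 96-well plates for 48 hours; endpoints were derived by simple linear interpolation of the resulting dose-response curve. GI50: concentration for 50% inhibition of growth. At the TGI there is no net growth.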

`COc1cc(OC)c(C(=O)/C=C/c2cc3c(cc2OCc2ccccc2)OC(C)(C)CC3)cc1CC=C(C)C`: the GI50 is 4.54 µM in the assay on MDA-MB-435; 6.78 µM in the assay on HOP-62 NSCLC; 2.98 µM with HCT-116 colon; 3.05 µM in the assay on HS 578T breast; 4.03 µM with U251 CNS; 3.52 µM in the assay on HOP-92 NSCLC. Further, the GI50 was 6.61 µM in the assay on NCI-H226 lung, 4.53 µM with SF-539 CNS, 4.56 µM with SF-295 CNS and 4.31 µM in the assay on SW-620 colon. Besides, the TGI was found to be 18.2 µM with MDA-MB-435; 13.5 µM with HOP-62 NSCLC; 6.41 µM in the assay on HCT-116 colon; 16.7 µM with HS 578T breast; 10.8 µM with U251 CNS; 19.9 µM in the assay with HOP-92 NSCLC. In addition, the TGI with NCI-H226 lung is 22.1 µM; in the assay with SF-539 CNS, 8.8 µM; with SF-295 CNS it was 15.8 µM; in the assay with SW-620 colon it was 10.2 µM.

On to `COc1ccc(NC(=O)CSC2=C(Nc3cccc(Br)c3)C(=O)N(Cc3ccccc3)C2=O)cc1Cl`, for which the GI50 in the assay with MDA-MB-435 was above 100 µM; with HOP-62 NSCLC, above 100 µM; in the assay with HCT-116 colon, 32.8 µM; with HS 578T breast, 35.4 µM; in the assay on U251 CNS it was 35.5 µM; with HOP-92 NSCLC, 24.5 µM. Moreover, the GI50 in the assay with NCI-H226 lung, in the assay with SF-539 CNS, in the assay on SF-295 CNS and with SW-620 colon was above 100 µM throughout. Besides, the TGI with MDA-MB-435, in the assay with HOP-62 NSCLC, with HCT-116 colon, with HS 578T breast, with U251 CNS and with HOP-92 NSCLC was above 100 µM each time. The TGI in the assay with NCI-H226 lung, in the assay on SF-539 CNS, with SF-295 CNS and with SW-620 colon was above 100 µM each time.

`CCCCCCCCCCCCCCCCCC1=NC(C)(C)CN1CC(C)O` (stereo not given): the GI50 in the assay on MDA-MB-435 is 2.08 µM; in the assay with HOP-62 NSCLC, 5.69 µM; with HCT-116 colon it was 2.43 µM; with HS 578T breast it was 14 µM; in the assay on U251 CNS, 4.89 µM; in the assay on HOP-92 NSCLC, 3.94 µM. Besides, the GI50 was 18.8 µM in the assay with NCI-H226 lung, 4.03 µM with SF-539 CNS, 13 µM in the assay with SF-295 CNS and 2.15 µM in the assay with SW-620 colon. In addition, the TGI in the assay on MDA-MB-435 was 4.5 µM; in the assay with HOP-62 NSCLC it was 26 µM; with HCT-116 colon it was 5.86 µM; with HS 578T breast, 34.2 µM; with U251 CNS, 19.9 µM; in the assay on HOP-92 NSCLC, 17.8 µM. Besides, the TGI came to 38.5 µM in the assay on NCI-H226 lung, 19.1 µM with SF-539 CNS, 31.4 µM with SF-295 CNS and 4.78 µM in the assay on SW-620 colon.

Take `Nc1ccccc1C#C/C=C\C#Cc1ccc(OCCCNC(=O)c2cc3ccccc3[nH]2)cc1`: the GI50 in the assay with MDA-MB-435 is 20.6 µM; in the assay on HOP-62 NSCLC it was 15.7 µM; in the assay with HCT-116 colon it was 12.4 µM; with HS 578T breast, 15.1 µM; with U251 CNS, 12.5 µM; with HOP-92 NSCLC it was 14.4 µM. In addition, the GI50 was 14.4 µM in the assay with NCI-H226 lung, 18.2 µM in the assay with SF-539 CNS, 12.1 µM in the assay on SF-295 CNS and above 100 µM in the assay with SW-620 colon. The TGI with MDA-MB-435 is above 100 µM; in the assay with HOP-62 NSCLC it was 35.7 µM; with HCT-116 colon it was 40.6 µM; in the assay with HS 578T breast it was above 100 µM; in the assay on U251 CNS, 25 µM; in the assay on HOP-92 NSCLC it was 37.5 µM. Also, the TGI was 87.7 µM with NCI-H226 lung, 37.5 µM with SF-539 CNS, 47.1 µM in the assay on SF-295 CNS and above 100 µM with SW-620 colon.

Regarding `COc1cc2nc(SCc3cc(OC)c(OC)c(OC)c3)n(Cc3ccccc3)c(=O)c2cc1OC`, the GI50 in the assay on MDA-MB-435 is 0.375 µM; in the assay with HOP-62 NSCLC, 4.48 µM; in the assay with HCT-116 colon, 2.42 µM; in the assay on HS 578T breast it was 2.09 µM; in the assay on U251 CNS, 3.64 µM; in the assay with HOP-92 NSCLC, 1.79 µM. Moreover, the GI50 was 6.85 µM with NCI-H226 lung, 2.81 µM with SF-539 CNS, 2.49 µM in the assay with SF-295 CNS and 2.5 µM in the assay with SW-620 colon. Further, the TGI is 2.04 µM with MDA-MB-435; 20.6 µM in the assay with HOP-62 NSCLC; above 100 µM in the assay on HCT-116 colon; 21.3 µM in the assay with HS 578T breast; 19.3 µM with U251 CNS; 8.97 µM in the assay on HOP-92 NSCLC. Besides, the TGI with NCI-H226 lung is above 100 µM; with SF-539 CNS, 16.2 µM; with SF-295 CNS it was 11.7 µM; in the assay on SW-620 colon, above 100 µM.

As to `O=C(NOC[C@H](O)CO)c1ccc(F)c(F)c1Nc1ccc(I)cc1F`, the GI50 is < 0.01 µM and 0.00416 µM with MDA-MB-435; 0.00599 µM with HOP-62 NSCLC; 0.0265 µM and 0.0182 µM in the assay with HCT-116 colon; 34.5 µM and > 2.97 µM in the assay on HS 578T breast; 1.05 µM and 0.662 µM in the assay with U251 CNS; 0.0377 µM and 0.0201 µM in the assay with HOP-92 NSCLC. Besides, the GI50 was 0.717 µM and 1.43 µM in the assay with NCI-H226 lung; 15.8 µM and > 10 µM in the assay with SF-539 CNS; 14.5 µM and > 10 µM in the assay with SF-295 CNS; < 0.01 µM and 0.00315 µM with SW-620 colon. Besides, the TGI in the assay with MDA-MB-435 is above 100 µM; in the assay on HOP-62 NSCLC, above 100 µM; in the assay on HCT-116 colon, above 100 µM; in the assay on HS 578T breast it was above 100 µM; with U251 CNS, above 100 µM; in the assay on HOP-92 NSCLC it was 0.613 µM and 0.43 µM. For the same compound, the TGI in the assay on NCI-H226 lung, in the assay on SF-539 CNS, with SF-295 CNS and in the assay on SW-620 colon was above 100 µM throughout.

As to `S=c1snc2n1CCN2`, the GI50 in the assay on MDA-MB-435 is above 100 µM; in the assay with HOP-62 NSCLC, above 100 µM; in the assay on HCT-116 colon it was 22.6 µM; in the assay with HS 578T breast it was above 100 µM; in the assay with U251 CNS, above 100 µM; with HOP-92 NSCLC, above 100 µM. Besides, the GI50 in the assay with NCI-H226 lung is 32.3 µM; in the assay with SF-539 CNS, above 100 µM; in the assay with SF-295 CNS it was above 100 µM; in the assay with SW-620 colon, 40.5 µM. The TGI in the assay with MDA-MB-435, in the assay on HOP-62 NSCLC, in the assay on HCT-116 colon, in the assay with HS 578T breast, in the assay on U251 CNS and in the assay with HOP-92 NSCLC was above 100 µM in each case. In addition, the TGI with NCI-H226 lung, in the assay with SF-539 CNS, in the assay with SF-295 CNS and with SW-620 colon was above 100 µM in each case.
